# Like-named read-outs stand apart in the source and are kept apart here.
# System: NCI-60 standardized human tumor cell line panel
# Test: cells
# Assay type: cell-based
# [1] = cell line A549/ATCC (LC:A549/ATCC), TMI sheet
# [2] = cell line BT-549 (BR:BT-549), TMI sheet
# [3] = cell line CCRF-CEM (LE:CCRF-CEM), TMI sheet
# [4] = cell line COLO 205 (CO:COLO 205), TMI sheet
# [5] = cell line EKVX (LC:EKVX), TMI sheet
# [6] = cell line HCC-2998 (CO:HCC-2998), TMI sheet
# [7] = cell line HCT-15 (CO:HCT-15), TMI sheet
# [8] = cell line HCT-116 (CO:HCT-116), TMI sheet
# [9] = cell line HL-60(TB) (LE:HL-60(TB)), TMI sheet
# [10] = cell line HOP-62 (LC:HOP-62), TMI sheet
# [11] = cell line HOP-92 (LC:HOP-92), TMI sheet
# [12] = cell line HT29 (CO:HT29), TMI sheet
# [13] = cell line K-562 (LE:K-562), TMI sheet
# [14] = cell line KM12 (CO:KM12), TMI sheet
# [15] = cell line LOX IMVI (ME:LOX IMVI), TMI sheet
# [16] = cell line M14 (ME:M14), TMI sheet
# [17] = cell line MALME-3M (ME:MALME-3M), TMI sheet
# [18] = cell line MCF7 (BR:MCF7), TMI sheet
# [19] = cell line MDA-MB-435 (ME:MDA-MB-435), TMI sheet
# [20] = cell line MOLT-4 (LE:MOLT-4), TMI sheet
# [21] = cell line NCI-H23 (LC:NCI-H23), TMI sheet
# [22] = cell line NCI-H226 (LC:NCI-H226), TMI sheet
# [23] = cell line RPMI-8226 (LE:RPMI-8226), TMI sheet
# [24] = cell line SF-539 (CNS:SF-539), TMI sheet
# [25] = cell line SK-MEL-5 (ME:SK-MEL-5), TMI sheet
# [26] = cell line SK-MEL-28 (ME:SK-MEL-28), TMI sheet
# [27] = cell line SNB-19 (CNS:SNB-19), TMI sheet
# [28] = cell line SR (LE:SR), TMI sheet
# [29] = cell line SW-620 (CO:SW-620), TMI sheet
# [30] = cell line T-47D (BR:T-47D), TMI sheet
# [31] = cell line U251 (CNS:U251), TMI sheet
# [32] = cell line UACC-62 (ME:UACC-62), TMI sheet
# [33] = cell line UACC-257 (ME:UACC-257), TMI sheet
smiles,measurement,setting,value
COc1cc2cc(C(=O)N3CC(CCl)c4c3cc(OC(=O)N3CCN(C)C5CSSCC53)c3ccccc43)[nH]c2c(OC)c1OC (mixture of isomers) [Me-SS66T-CBI-TMI],GI50,"TK-10, read-out: GI50",0.13 µM
same,GI50,"U251, read-out: GI50",0.011 µM
same,GI50,"UACC-62, read-out: GI50",0.015 µM
same,GI50,"UACC-257, read-out: GI50",0.024 µM
same,NCI-60 screening: Log(GI50),[1],-7.92
same,NCI-60 screening: Log(RedIndex),[1],2.22
same,GI50,"cell line A549/ATCC (LC:A549/ATCC), TMI sheet, read-out: NCI-60 screening: Raw GI50",0.012 µM
same,NCI-60 screening: Log(GI50),[2],-7.81
same,NCI-60 screening: Log(RedIndex),[2],2.01
same,GI50,"cell line BT-549 (BR:BT-549), TMI sheet, read-out: NCI-60 screening: Raw GI50",0.015 µM
same,NCI-60 screening: Log(GI50),[3],-7.58
same,NCI-60 screening: Log(RedIndex),[3],1.58
same,NCI-60 screening: Log(GI50),[4],-7.31
same,NCI-60 screening: Log(RedIndex),[4],1.44
same,NCI-60 screening: Log(GI50),[5],-7.74
same,NCI-60 screening: Log(RedIndex),[5],2.03
same,GI50,"cell line EKVX (LC:EKVX), TMI sheet, read-out: NCI-60 screening: Raw GI50",0.018 µM
same,NCI-60 screening: Log(GI50),[6],-7.81
same,NCI-60 screening: Log(RedIndex),[6],1.99
same,GI50,"cell line HCC-2998 (CO:HCC-2998), TMI sheet, read-out: NCI-60 screening: Raw GI50",0.015 µM
same,NCI-60 screening: Log(GI50),[7],-7.66
same,NCI-60 screening: Log(RedIndex),[7],1.9
same,NCI-60 screening: Log(GI50),[8],-7.74
same,NCI-60 screening: Log(RedIndex),[8],1.92
same,GI50,"cell line HCT-116 (CO:HCT-116), TMI sheet, read-out: NCI-60 screening: Raw GI50",0.018 µM
same,NCI-60 screening: Log(GI50),[9],-7.92
same,NCI-60 screening: Log(RedIndex),[9],1.8
same,GI50,"cell line HL-60(TB) (LE:HL-60(TB)), TMI sheet, read-out: NCI-60 screening: Raw GI50",0.012 µM
same,NCI-60 screening: Log(GI50),[10],-7.91
same,NCI-60 screening: Log(RedIndex),[10],1.68
same,GI50,"cell line HOP-62 (LC:HOP-62), TMI sheet, read-out: NCI-60 screening: Raw GI50",0.012 µM
same,NCI-60 screening: Log(GI50),[11],-7.57
same,NCI-60 screening: Log(RedIndex),[11],1.97
same,GI50,"cell line HOP-92 (LC:HOP-92), TMI sheet, read-out: NCI-60 screening: Raw GI50",0.027 µM
same,NCI-60 screening: Log(GI50),[12],-7.47
same,NCI-60 screening: Log(RedIndex),[12],1.65
same,GI50,"cell line HT29 (CO:HT29), TMI sheet, read-out: NCI-60 screening: Raw GI50",0.034 µM
same,NCI-60 screening: Log(GI50),[13],-7.61
same,NCI-60 screening: Log(RedIndex),[13],1.44
same,GI50,"cell line K-562 (LE:K-562), TMI sheet, read-out: NCI-60 screening: Raw GI50",0.025 µM
same,NCI-60 screening: Log(GI50),[14],-7.36
same,NCI-60 screening: Log(RedIndex),[14],1.68
same,NCI-60 screening: Log(GI50),[15],-7.91
same,NCI-60 screening: Log(RedIndex),[15],1.96
same,GI50,"cell line LOX IMVI (ME:LOX IMVI), TMI sheet, read-out: NCI-60 screening: Raw GI50",0.012 µM
same,NCI-60 screening: Log(GI50),[16],-7.98
same,NCI-60 screening: Log(RedIndex),[16],2.16
same,GI50,"cell line M14 (ME:M14), TMI sheet, read-out: NCI-60 screening: Raw GI50",0.01 µM
same,NCI-60 screening: Log(GI50),[17],-7.86
same,NCI-60 screening: Log(RedIndex),[17],2.06
same,NCI-60 screening: Log(GI50),[18],-8.28
same,NCI-60 screening: Log(RedIndex),[18],1.78
same,NCI-60 screening: Log(GI50),[19],-7.56
same,NCI-60 screening: Log(RedIndex),[19],1.81
same,GI50,"cell line MDA-MB-435 (ME:MDA-MB-435), TMI sheet, read-out: NCI-60 screening: Raw GI50",0.027 µM
same,NCI-60 screening: Log(GI50),[20],-8
same,NCI-60 screening: Log(RedIndex),[20],1.78
same,NCI-60 screening: Log(GI50),[21],-8.02
same,NCI-60 screening: Log(RedIndex),[21],1.69
same,GI50,"cell line NCI-H23 (LC:NCI-H23), TMI sheet, read-out: NCI-60 screening: Raw GI50",0.0095 µM
same,NCI-60 screening: Log(GI50),[22],-7.02
same,NCI-60 screening: Log(RedIndex),[22],1.18
same,NCI-60 screening: Log(GI50),[23],-7.47
same,NCI-60 screening: Log(RedIndex),[23],1.64
same,GI50,"cell line RPMI-8226 (LE:RPMI-8226), TMI sheet, read-out: NCI-60 screening: Raw GI50",0.034 µM
same,NCI-60 screening: Log(GI50),"cell line SF-268 (CNS:SF-268), TMI sheet",-7.83
same,GI50,"cell line SF-268 (CNS:SF-268), TMI sheet, read-out: NCI-60 screening: Raw GI50",0.015 µM
same,NCI-60 screening: Log(GI50),"cell line SF-295 (CNS:SF-295), TMI sheet",-8.01
same,NCI-60 screening: Log(GI50),[24],-8
same,NCI-60 screening: Log(RedIndex),[24],2.12
same,GI50,"cell line SF-539 (CNS:SF-539), TMI sheet, read-out: NCI-60 screening: Raw GI50",0.01 µM
same,NCI-60 screening: Log(GI50),[25],-7.88
same,NCI-60 screening: Log(RedIndex),[25],2.09
same,NCI-60 screening: Log(GI50),[26],-7.84
same,NCI-60 screening: Log(RedIndex),[26],2.39
same,GI50,"cell line SK-MEL-28 (ME:SK-MEL-28), TMI sheet, read-out: NCI-60 screening: Raw GI50",0.015 µM
same,NCI-60 screening: Log(GI50),[27],-7.79
same,NCI-60 screening: Log(RedIndex),[27],2.13
same,GI50,"cell line SNB-19 (CNS:SNB-19), TMI sheet, read-out: NCI-60 screening: Raw GI50",0.016 µM
same,NCI-60 screening: Log(GI50),[28],-8.4
same,NCI-60 screening: Log(RedIndex),[28],1.84
same,NCI-60 screening: Log(GI50),[29],-7.24
same,NCI-60 screening: Log(RedIndex),[29],1.51
same,GI50,"cell line SW-620 (CO:SW-620), TMI sheet, read-out: NCI-60 screening: Raw GI50",0.058 µM
same,NCI-60 screening: Log(GI50),[30],-7.3
same,NCI-60 screening: Log(RedIndex),[30],1.58
same,NCI-60 screening: Log(GI50),[31],-7.96
same,NCI-60 screening: Log(RedIndex),[31],2.14
same,NCI-60 screening: Log(GI50),[32],-7.82
same,NCI-60 screening: Log(RedIndex),[32],2.01
same,GI50,"cell line UACC-62 (ME:UACC-62), TMI sheet, read-out: NCI-60 screening: Raw GI50",0.015 µM
same,NCI-60 screening: Log(GI50),[33],-7.62
same,NCI-60 screening: Log(RedIndex),[33],1.92
same,mean reductive index,"mean over NCI cell lines, vs P-CC60",ca. 70
same,GI50,read-out: NCI-60 screening: Raw GI50,0.16 µM

# From PMC10141580, “Cyclic Dichalcogenides Extend the Reach of Bioreductive Prodrugs to Harness Thiol/Disulfide Oxidoreductases: Applications to seco-Duocarmycins Targeting the Thioredoxin System” (ACS Central Science, 2023)
